# According to the supplement of paper PMC10307832:
# Legend:
# Assay in all cases: relative viability (nuclei count vs DMSO), 5 days (fraction); higher = more cells survive
# Carboplatin + Tozasertib = compound: C1CC(C1)(C(=O)O)C(=O)O.[NH2-].[NH2-].[Pt+2] [Carboplatin] + Cc1cc(Nc2cc(N3CCN(C)CC3)nc(Sc3ccc(NC(=O)C4CC4)cc3)n2)n[nH]1 [Tozasertib] (partner 0.1 µM)
# Method in brief: (§1)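 After 5 days of treatment, lung cancer cells in 1536-well plates were fixed and stained in a single step (final 0.05% Triton X-100, 1% formaldehyde, 1 ug/ml Hoechst) and their nuclei counted on 4× images. Treatment had been applied by pin tool the day after seeding as one drug alone or as a fixed anchor-drug dose with five library-drug doses (not always all listed) in √10 steps. Relative viability is the nuclei count of treated wells divided by that of vehicle wells, and values are medians of duplicate plates.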
# GSK126 + Pictilisib = compound: CC[C@H](C)N1C=C(C2=C(C=C(C=C21)C3=CN=C(C=C3)N4CCNCC4)C(=O)NCC5=C(C=C(NC5=O)C)C)C [GSK126] + CS(=O)(=O)N1CCN(Cc2cc3nc(-c4cccc5[nH]ncc45)nc(N4CCOCC4)c3s2)CC1 [Pictilisib] (partner 1 µM)
# Method in brief: as §1
# Carboplatin + Phenformin = compound: C1CC(C1)(C(=O)O)C(=O)O.[NH2-].[NH2-].[Pt+2] [Carboplatin] + N=C(N)NC(=N)NCCc1ccccc1 [Phenformin] (partner 250 µM)
# Method in brief: as §1
# Carboplatin + OSI-027 = compound: C1CC(C1)(C(=O)O)C(=O)O.[NH2-].[NH2-].[Pt+2] [Carboplatin] + COc1cccc2cc(-c3nc([C@H]4CC[C@H](C(=O)O)CC4)n4ncnc(N)c34)[nH]c12 [OSI-027] (partner 0.5 µM)
# Method in brief: as §1
cell line,measurement,setting,value
UMC-11,relative viability,Carboplatin + Tozasertib; first compound 0.08 µM,0.22
same,relative viability,Carboplatin + Tozasertib; first compound 0.253 µM,0.208
same,relative viability,Carboplatin + Tozasertib; first compound 0.8 µM,0.207
same,relative viability,Carboplatin + Tozasertib; first compound 2.53 µM,0.193
same,relative viability,Carboplatin + Tozasertib; first compound 8 µM,0.212
same,relative viability,GSK126 + Pictilisib; first compound 0.08 µM,0.91
same,relative viability,GSK126 + Pictilisib; first compound 0.253 µM,0.85
same,relative viability,GSK126 + Pictilisib; first compound 0.8 µM,0.882
same,relative viability,GSK126 + Pictilisib; first compound 2.53 µM,0.829
same,relative viability,GSK126 + Pictilisib; first compound 8 µM,0.714
same,relative viability,Carboplatin + Phenformin; first compound 0.08 µM,0.346
same,relative viability,Carboplatin + Phenformin; first compound 0.253 µM,0.324
same,relative viability,Carboplatin + Phenformin; first compound 0.8 µM,0.317
same,relative viability,Carboplatin + Phenformin; first compound 2.53 µM,0.331
same,relative viability,Carboplatin + Phenformin; first compound 8 µM,0.275
same,relative viability,Carboplatin + OSI-027; first compound 0.08 µM,0.462
same,relative viability,Carboplatin + OSI-027; first compound 0.253 µM,0.432
same,relative viability,Carboplatin + OSI-027; first compound 0.8 µM,0.456
same,relative viability,Carboplatin + OSI-027; first compound 2.53 µM,0.462
same,relative viability,Carboplatin + OSI-027; first compound 8 µM,0.405
